Entries after “also recorded” stand apart in the source; their conditions may differ. Where no end group is shown, it is not given here.
What was measured:
[1] = test system: A. rubens sNPF/PrRP-type receptor Ar-sNPF/PrRPR; assay: Receptor activation: luminescence of CHO-K1 cells expressing Ar-sNPF/PrRPR, Gα16 and apoaequorin-GFP fusion (G5A) (CHO-Ar-sNPF/PrRPR); format: cell-based, Asterias rubens; settings: for luminescence response / receptor activation (in words): at least three independent experiments in triplicate
Procedure: A cDNA encoding Ar-sNPF/PrRPR was cloned and sequenced (Figure 3—figure supplement 1) and its sequence has been deposited in GenBank under accession number MH807444.1. […] The cloned receptor was then co-expressed with Gα16 in CHO-K1 cells expressing apoaequorin to produce the cell system CHO-Ar-sNPF/PrRPR. Synthetic ArPrRP (p[…]-NH2) was tested as a candidate ligand for Ar-sNPF/PrRPR at concentrations ranging from 10^−14 M to 10^−5 M, comparing with cells incubated in assay media without the addition of the peptide. […] Because ArPrRP contains a potential dibasic cleavage site (see underlined arginine residues in its sequence: p[…]-NH2), we hypothesised that the C-terminal pentapeptide of ArPrRP (LNPRFamide) may also be generated from ArPrRPP in vivo. Therefore, we also tested synthetic LNPRFamide as a candidate ligand for Ar-sNPF/PrRPR. […] Therefore, we conclude that the 22-residue amidated peptide ArPrRP is the natural ligand for Ar-sNPF/PrRPR in A. rubens.
Figure 5. A. rubens PrRP-like peptide ArPrRP acts as a ligand for the A. rubens sNPF/PrRP-type receptor Ar-sNPF/PrRPR. (A) The A. rubens PrRP-like peptide ArPrRP (10^−5 M; red bar) triggers luminescence in CHO-K1 cells expressing the A. rubens PrRP/sNPF-type receptor Ar-sNPF/PrRPR, the promiscuous G-protein Gα16 and the calcium-sensitive luminescent GFP-apoaequorin fusion protein G5A. For comparison, the background luminescence of cells that were not exposed to ArPrRP is shown (basal media; grey bar). Mean values (± S.E.M) were determined from three independent experiments performed in triplicate (B). Graph showing the selectivity of ArPrRP as a ligand for Ar-sNPF/PrRPR. […] Ar-sNPF/PrRPR is not activated by a C-terminal pentapeptide fragment of ArPrRP (LNPRFamide) or by the A. rubens luqin-type peptide ArLQ. Each point represents mean values (± S.E.M) from at least three independent experiments done in triplicate. The raw data for the experiments shown in Figure 5 and in Figure 5—figure supplement 2 can be found in Figure 5—source data 1. Figure 5—source data 1. Data for the graphs shown in Figure 5 and Figure 5—figure supplement 2. Figure 5—figure supplement 1. Predicted topology of Ar-sNPF/PrRPR. Seven predicted transmembrane domains are numbered successively in blue and two predicted N-glycosylation sites are shown with green boxes. This figure was generated using Protter (http://wlab.ethz.ch/protter/start/). [drawing 6] Figure 5—figure supplement 2. […] Each point represents mean values (± S.E.M.) from at least three independent experiments, with each experiment performed in triplicate. [drawing 7]
To enable the pharmacological characterisation of a candidate receptor for the A. rubens NPY/NPF/PrRP-like peptide, a cDNA encoding this receptor was cloned into the eukaryotic expression vector pcDNA 3.1(+) (Invitrogen; Cat. No. V790-20). To facilitate expression of the cloned receptor, the forward primer included a partial Kozak consensus sequence (ACC) and a sequence corresponding to the first 15 bases of the open reading frame of contig 1120879 (ACCATGCAGATGACAACC) and the reverse primer consisted of a stop codon and a sequence reverse complementary to the 3’ region of the open reading frame of contig 1120879 ([…]). PCR was performed using the forward primer and reverse primers, A. rubens radial nerve cord cDNA and Q5 polymerase (NEB; Cat. No. M0491S). […] Successful ligation and the direction of the insert was determined by restriction enzyme digestion and sequencing (TubeSeq service; Eurofins Genomics). […]

NPR-11 = settings: ref Chalasani et al., 2010; cited from earlier work
From the text: The nematode C. elegans is a powerful model system for functional characterisation of neuropeptide signalling systems ([Frooninckx et al., 2012]). However, NPY/NPF-type signalling has thus far only been partially characterised in this species. […] However, this peptide shares little sequence similarity with NPY/NPF-typ ...

[2] = test system: CHO-K1 cells transfected with an empty pcDNA 3.1(+) vector; assay: Control: luminescence of CHO-K1 (G5A) cells transfected with empty pcDNA 3.1(+) vector; format: cell-based, Cricetulus griseus; settings: cells transfected with vector alone; at least three independent experiments in triplicate
Procedure: A cDNA encoding Ar-sNPF/PrRPR was cloned and sequenced (Figure 3—figure supplement 1) and its sequence has been deposited in GenBank under accession number MH807444.1. […] The cloned receptor was then co-expressed with Gα16 in CHO-K1 cells expressing apoaequorin to produce the cell system CHO-Ar-sNPF/PrRPR. Synthetic ArPrRP (p[…]-NH2) was tested as a candidate ligand for Ar-sNPF/PrRPR at concentrations ranging from 10^−14 M to 10^−5 M, comparing with cells incubated in assay media without the addition of the peptide. […] Because ArPrRP contains a potential dibasic cleavage site (see underlined arginine residues in its sequence: p[…]-NH2), we hypothesised that the C-terminal pentapeptide of ArPrRP (LNPRFamide) may also be generated from ArPrRPP in vivo. Therefore, we also tested synthetic LNPRFamide as a candidate ligand for Ar-sNPF/PrRPR. […]
Figure 5. […] (A) The A. rubens PrRP-like peptide ArPrRP (10^−5 M; red bar) triggers luminescence in CHO-K1 cells expressing the A. rubens PrRP/sNPF-type receptor Ar-sNPF/PrRPR, the promiscuous G-protein Gα16 and the calcium-sensitive luminescent GFP-apoaequorin fusion protein G5A. For comparison, the background luminescence of cells that were not exposed to ArPrRP is shown (basal media; grey bar). Mean values (± S.E.M) were determined from three independent experiments performed in triplicate (B). […]

Row | Substance | luminescence response / receptor activation (in words) [1] | receptor activation (in words) (NPR-11) | luminescence response (in words) [2] | ligand potency (in words) [1] | luminescence response relative to background (basal media) ([1]; 10^-5 M, mean of three independent experiments in triplicate) | EC50 ([1]; 10^-14 M to 10^-5 M in DMEM/F12, luminescence integrated over 30 s, four-parameter curve, at least three independent transfections in triplicate, read-out: EC50 (half-maximal response concentration))
1 | LNPRFamide [C-terminal pentapeptide of ArPrRP] | did not induce luminescence responses; also recorded: not activated |  |  |  |  | 
2 | MDANAFRMSF-NH2 |  | only showed activation at peptide concentrations of 10 and 30 µM |  |  |  | 
3 | pQDRSKAMQAERTGQLRRLNPRF-NH2 [ArPrRP, 22-residue amidated starfish PrRP-type neuropeptide, custom synthesised] | induced dose-dependent luminescence; also recorded: causes dose-dependent luminescence |  | no response; also recorded: does not trigger luminescence | potent ligand | approximately five times the background luminescence | 0.15 nM

From paper PMC7314547, “Echinoderms provide missing link in the evolution of PrRP/sNPF-type neuropeptide signalling” (eLife, 2020)
